Reference: patent US9452980B2, “Substituted benzamides” (Hoffmann-La Roche Inc., priority 2009, dated 2016)
Where a name gives a salt, the structure may show the parent alone. Read-outs that look alike come from different tables or passages of the source.

Experiments:
[1] = target: mouse TAAR1 (Mus musculus (Mouse), UniProt Q923Y8); assay: Radioligand binding assay on mouse TAAR1; conditions: read-out: Ki (μM) mouse
How it was run: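 Displacement of the tritiated oxazol-2-ylamine radioligand was measured by filtration and scintillation counting after 1 h incubation at 4 °C. Test concentrations ran 10 pM–10 μM in duplicate, with 10 μM cold ligand giving nonspecific binding. The receptor source was membranes of a stable mouse TAAR1 HEK293 line.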

[2] = target: rat TAAR1 (Rattus norvegicus (Rat), UniProt Q923Y9); assay: Radioligand binding assay on rat TAAR1; conditions: read-out: Ki (μM) rat
How it was run: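 Membranes from HEK293 cells stably expressing rat TAAR1, with Kd checked per batch by saturation. Competition with ³H-(S)-4-[(ethyl-phenyl-amino)-methyl]-4,5-dihydro-oxazol-2-ylamine, compounds 10 pM–10 μM in duplicate, 1 hr at 4 °C. Filtration then scintillation counting; nonspecific binding defined with 10 μM unlabeled ligand.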

[3] = rat TAAR1, HEK-293 membranes, second value of cell mouse/rat
[4] = mouse TAAR1, HEK-293 membranes, first value of cell mouse/rat

mouse TAAR1, sequence (Q923Y8 whole entry): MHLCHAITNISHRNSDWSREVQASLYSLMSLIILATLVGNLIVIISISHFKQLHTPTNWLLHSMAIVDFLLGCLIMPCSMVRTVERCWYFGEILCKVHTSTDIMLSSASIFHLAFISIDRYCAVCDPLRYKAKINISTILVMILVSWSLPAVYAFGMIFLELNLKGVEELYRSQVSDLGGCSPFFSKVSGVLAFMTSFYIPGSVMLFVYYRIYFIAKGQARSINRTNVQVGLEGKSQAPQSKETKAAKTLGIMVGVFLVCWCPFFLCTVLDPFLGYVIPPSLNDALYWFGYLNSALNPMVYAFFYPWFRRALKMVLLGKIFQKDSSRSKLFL
rat TAAR1, sequence (Q923Y9 whole entry): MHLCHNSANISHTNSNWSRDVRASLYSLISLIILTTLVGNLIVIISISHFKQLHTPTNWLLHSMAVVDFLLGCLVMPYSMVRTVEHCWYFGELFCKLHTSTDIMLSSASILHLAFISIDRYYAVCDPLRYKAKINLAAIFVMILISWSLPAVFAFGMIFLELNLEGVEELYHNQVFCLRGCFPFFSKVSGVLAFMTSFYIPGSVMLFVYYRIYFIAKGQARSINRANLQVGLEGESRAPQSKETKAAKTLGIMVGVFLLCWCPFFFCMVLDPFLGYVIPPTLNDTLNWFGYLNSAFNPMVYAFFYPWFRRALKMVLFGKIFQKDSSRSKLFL

Row | SMILES | Ki [1] [µM] | Ki [2, 3] [µM] | Ki [1, 4] [µM] | Ki [2] [µM]
1 | CCCc1cnc(C(=O)Nc2ccc([C@@H]3CCCNC3)cc2)cn1 [Example 278, (S)—N-(4-(Piperidin-3-yl)phenyl)-5-propylpyrazine-2-carboxamide hydrochloride] | 0.829 | 0.0118 |  | 
2 | O=C(Nc1ccc([C@@H]2CCCNC2)cc1)c1cc(Cl)nc(Cl)c1 [Example 281, (S)-2,6-Dichloro-N-(4-(piperidin-3-yl)phenyl)isonicotinamide hydrochloride] |  | 0.0014 | 0.0128 | 
3 | Cc1cc(C(=O)Nc2ccc([C@@H]3CCCNC3)cc2)cc(Cl)n1 [Example 282, (S)-2-Chloro-6-methyl-N-(4-(piperidin-3-yl)phenyl)isonicotinamide] | 0.243 | 0.0048 |  | 
4 | O=C(Nc1ccc([C@@H]2CNCCO2)cc1)c1ccc(C(F)(F)F)nc1 [Example 283, (R)—N-(4-(Morpholin-2-yl)phenyl)-6-(trifluoromethyl)nicotinamide hydrochloride] |  |  | 0.006 | 0.0059
5 | O=C(Nc1ccc([C@H]2CNCCO2)cc1)c1ccc(C(F)(F)F)nc1 [Example 284, (S)—N-(4-(Morpholin-2-yl)phenyl)-6-(trifluoromethyl)nicotinamide hydrochloride] | 0.0128 |  |  | 0.005
6 | Cc1cc(C(=O)Nc2ccc([C@@H]3CNCCO3)cc2)cc(Cl)n1 [Example 285, (R)-2-Chloro-6-methyl-N-(4-(morpholin-2-yl)phenyl)isonicotinamide hydrochloride] | 0.0082 | 0.005 |  | 
7 | Cc1cc(C(=O)Nc2ccc([C@H]3CNCCO3)cc2)cc(Cl)n1 [Example 286, (S)-2-Chloro-6-methyl-N-(4-(morpholin-2-yl)phenyl)isonicotinamide hydrochloride] | 0.0222 | 0.0044 |  | 
8 | CCCc1ccc(C(=O)Nc2ccc([C@@H]3CCCNC3)cc2)cn1 [Example 289, (S)—N-(4-(Piperidin-3-yl)phenyl)-6-propylnicotinamide] |  |  | 0.143 | 0.0027
9 | CCc1ccc(C(=O)Nc2ccc([C@@H]3CCCNC3)cc2)cn1 [Example 297, (S)-6-Ethyl-N-(4-(piperidin-3-yl)phenyl)nicotinamide] |  | 0.0044 | 0.018 | 
10 | O=C(Nc1ccc([C@H]2CNCCO2)cc1)c1ccc(Cl)cc1I [Example 301, (S)-4-Chloro-2-iodo-N-(4-(morpholin-2-yl)phenyl)benzamide] |  | 0.007 | 0.0509 | 
11 | O=C(Nc1ccc([C@H]2CNCCCO2)cc1)c1cccc(Cl)c1 [Example 308, (S)—N-(4-(1,4-Oxazepan-2-yl)phenyl)-3-chlorobenzamide hydrochloride] |  | 0.0018 | 0.287 | 
12 | C[C@H]1CNC[C@H](c2ccc(NC(=O)c3cccc(Cl)c3)cc2)O1 [Example 309, 3-Chloro-N-(4-((2S,6S)-6-methylmorpholin-2-yl)phenyl)benzamide hydrochloride] | 0.116 | 0.0023 |  | 
13 | C[C@@H]1CNC[C@H](c2ccc(NC(=O)c3ccc(Cl)nc3)cc2)O1 [Example 310, 6-Chloro-N-(4-((2S,6R)-6-methylmorpholin-2-yl)phenyl)nicotinamide hydrochloride] | 0.0476 | 0.0108 |  | 
14 | O=C(Nc1ccc([C@@H]2CNCCO2)cc1)Nc1ccc(C(F)(F)F)cc1 [Example 311, (R)-1-(4-(Morpholin-2-yl)phenyl)-3-(4-(trifluoromethyl)phenyl)urea hydrochloride] |  |  | 0.0005 | 0.0014
15 | O=C(Nc1ccc([C@H]2CNCCO2)cc1)Nc1ccc(C(F)(F)F)cc1 [Example 312, (S)-1-(4-(Morpholin-2-yl)phenyl)-3-(4-(trifluoromethyl)phenyl)urea hydrochloride] |  |  | 0.0007 | 0.0011
16 | O=C(NCc1ccc([C@@H]2CNCCO2)cc1)c1cccc(Cl)c1 [Example 313, (R)-3-Chloro-N-(4-(morpholin-2-yl)benzyl)benzamide hydrochloride] |  | 0.0154 | 0.547 | 
17 | O=C(NCc1ccc([C@@H]2CNCCO2)cc1)c1ccc(Cl)cc1 [Example 314, (R)-4-Chloro-N-(4-(morpholin-2-yl)benzyl)benzamide hydrochloride] |  | 0.0062 | 1.89 | 
18 | O=C(NCc1ccc([C@@H]2CNCCO2)cc1)c1ccc(Cl)nc1 [Example 315, (R)-6-Chloro-N-(4-(morpholin-2-yl)benzyl)nicotinamide hydrochloride] |  | 0.009 | 1.35 | 
19 | O=C(NCc1ccc([C@@H]2CNCCO2)cc1)c1ccc(OCC(F)(F)F)nc1 [Example 316, (R)—N-(4-(Morpholin-2-yl)benzyl)-6-(2,2,2-trifluoroethoxy)nicotinamide hydrochloride] |  | 0.0121 | 0.273 | 
20 | O=C(NCc1ccc([C@H]2CNCCO2)cc1)c1cccc(Cl)c1 [Example 318, (S)-3-Chloro-N-(4-(morpholin-2-yl)benzyl)benzamide hydrochloride] |  | 0.0312 | 12900 | 
21 | O=C(NCc1ccc([C@@H]2CNCCO2)cc1)c1ccc(C(F)(F)F)nc1 [Example 321, (R)—N-(4-(Morpholin-2-yl)benzyl)-6-(trifluoromethyl)nicotinamide hydrochloride] | 1.31 |  |  | 0.026
22 | C[C@H]1CO[C@@H](c2ccc(NC(=O)c3cccc(Cl)c3)cc2)CN1 [Example 322, 3-Chloro-N-[4-((2S,5S)-5-methyl-morpholin-2-yl)-phenyl]-benzamide hydrochloride] | 0.0188 |  |  | 0.0017
23 | C[C@@H]1CO[C@@H](c2ccc(NC(=O)c3cccc(Cl)c3)cc2)CN1 [Example 323, 3-Chloro-N-[4-((2S,5R)-5-methyl-morpholin-2-yl)-phenyl]-benzamide hydrochloride] | 0.0592 |  |  | 0.0013
